# Target: ALK tyrosine kinase receptor (Homo sapiens, UniProt Q9UM73)
# Assay: 2.5 uL-4x Test Compound or 100 nL 100x plus 2.4 uL kinase buffer; 2. 5 uL-2x Peptide/Kinase Mixture; 3. 2.5 uL-4xATP Solution; 4. 30-second plate shake; 5. 60-minute Kinase Reaction incubation at room temperature; 6. 5 uL-Development Reagent Solution; 7. 30-second plate shake; 8. 60-minute Development Reaction incubation at room temperature; 9. […] After the 1 hour Kinase Reaction incubation, 5 uL of a 1:256 dilution of Development Reagent B is added.
# ALK tyrosine kinase receptor, sequence (Q9UM73 whole entry): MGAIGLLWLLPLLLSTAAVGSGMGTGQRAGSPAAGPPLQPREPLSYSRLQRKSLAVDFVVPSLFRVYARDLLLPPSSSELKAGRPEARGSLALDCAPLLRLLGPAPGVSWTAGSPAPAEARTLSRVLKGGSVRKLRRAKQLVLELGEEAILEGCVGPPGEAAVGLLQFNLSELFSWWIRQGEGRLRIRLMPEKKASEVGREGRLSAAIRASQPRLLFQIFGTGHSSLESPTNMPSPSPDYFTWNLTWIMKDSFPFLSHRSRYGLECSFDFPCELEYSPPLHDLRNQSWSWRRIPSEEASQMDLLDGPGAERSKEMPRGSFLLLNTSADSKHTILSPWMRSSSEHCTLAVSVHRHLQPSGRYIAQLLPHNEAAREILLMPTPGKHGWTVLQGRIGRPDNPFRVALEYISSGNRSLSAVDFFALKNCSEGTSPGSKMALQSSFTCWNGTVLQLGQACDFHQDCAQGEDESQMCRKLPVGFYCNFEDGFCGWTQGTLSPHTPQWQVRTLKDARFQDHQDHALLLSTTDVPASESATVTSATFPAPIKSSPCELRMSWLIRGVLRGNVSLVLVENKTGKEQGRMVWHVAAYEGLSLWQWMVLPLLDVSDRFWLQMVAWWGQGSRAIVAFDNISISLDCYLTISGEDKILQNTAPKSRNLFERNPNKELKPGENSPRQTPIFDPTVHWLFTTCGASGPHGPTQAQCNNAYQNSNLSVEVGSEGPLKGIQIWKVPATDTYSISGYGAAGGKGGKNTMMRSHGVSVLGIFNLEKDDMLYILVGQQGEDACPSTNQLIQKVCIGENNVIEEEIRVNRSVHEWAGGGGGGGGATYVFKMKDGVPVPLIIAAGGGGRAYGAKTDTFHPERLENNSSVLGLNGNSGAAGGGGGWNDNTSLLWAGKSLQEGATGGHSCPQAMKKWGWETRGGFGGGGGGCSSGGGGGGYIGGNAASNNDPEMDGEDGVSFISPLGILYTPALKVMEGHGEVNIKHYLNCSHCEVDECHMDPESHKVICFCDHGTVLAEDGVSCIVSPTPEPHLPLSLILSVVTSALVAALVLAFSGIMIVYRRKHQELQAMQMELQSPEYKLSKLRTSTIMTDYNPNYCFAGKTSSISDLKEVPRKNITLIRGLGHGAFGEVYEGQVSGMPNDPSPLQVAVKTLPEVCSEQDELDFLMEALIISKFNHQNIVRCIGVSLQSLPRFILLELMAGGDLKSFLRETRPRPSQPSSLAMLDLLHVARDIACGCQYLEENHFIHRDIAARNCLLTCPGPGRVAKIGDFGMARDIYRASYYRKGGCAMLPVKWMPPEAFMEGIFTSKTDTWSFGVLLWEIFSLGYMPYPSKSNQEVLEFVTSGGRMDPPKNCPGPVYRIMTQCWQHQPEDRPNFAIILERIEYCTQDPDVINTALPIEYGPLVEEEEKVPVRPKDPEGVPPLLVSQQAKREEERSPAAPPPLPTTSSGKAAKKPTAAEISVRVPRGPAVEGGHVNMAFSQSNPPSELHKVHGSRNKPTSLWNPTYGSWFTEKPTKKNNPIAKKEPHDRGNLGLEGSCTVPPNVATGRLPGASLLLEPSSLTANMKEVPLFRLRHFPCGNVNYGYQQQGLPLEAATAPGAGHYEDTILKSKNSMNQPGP
smiles,measurement,value
COc1cc(N2CCC(N(C)C)CC2)ccc1Nc1ncc(Cl)c(Nc2ccccc2C(=O)C(N)=O)n1,IC50,27.9 nM

# Reference: ChEMBL document CHEMBL5726454, “Protein tyrosine kinase modulators and methods of use” (2017)
